Columns and labels:
[1] = tested on: NK cells; assay: Activity of NK cells in mice bearing cancer; format: in vivo, DBA/2 mice; details: 20 mg/kg, iv × 7
Description: Each of 60 DBA/2 mice was inoculated subcutaneously with 1×10^4 L1210 leukemia cells of mice. Next day, the mice were grouped randomly into 6 groups (10 mice per group): Lentinan 20 mg/kg, the injection of the invention (6.25 ml/kg, 12.5 ml/kg and 25 ml/kg), solvent control and NS control. Animals were administered, i.v., for 7 days, then sacrificed. Spleens were picked up in aseptic condition. Splenocytes were prepared and adjusted into 1×10^6/ml. The activity of NK cells was detected by using the inhibition on ^3H-TdR incorporation. To wells of a 96 well microplate were added splenocytes cells (effector cells) 100 μl/well, YAC-1 cells (target cells, 1×10^4 cells/ml) 100 μl/well and ^3H-TdR 0.5 μci/well, in triplicate. After being incubated in a 37° C. incubator under 5% CO2 for 24 h, cells were collected, and CPM values were determined. The specific percentage inhibition (Pi), indicating the activity of NK cells, was calculated according to the above formula.

[2] = tested on: Splenocytes; assay: Splenic lymphopoiesis induced by ConA in mice in vitro (3H-TdR incorporation); format: cell-based, C57BL/6 mice
Description: Spleens were picked up from C57BL/6 mice in aseptic condition. Splenocytes were separated and the concentration of cells was adjusted to 1×10^7 cells/ml with RPMI 1640+15% FCS medium. The experiment groups were as follows: the injection of the invention in four concentrations, lentinan (positive control group) in four concentrations, corresponding solvent (blank control I) and medium (blank control II). 100 μl Cells, 100 μl solution of drug/control and 50 μl ConA were added in each well in triplicate. The 96 well microplate was incubated in a 37° C. incubator under 5% CO2 for 48 h. ^3H-TdR (0.5 μci/well) was added and the incubation was continued for 20 h. Cells were collected, and CPM values were determined in a liquid scintillation counter and compared with control groups. It is shown in the results (table 3) that the injection of the invention, as same as lentinan, has obviously facilitated the splenic lymphopoiesis in mice in vitro and the effect is linear dependent to the concentration.

[3] = tested on: mice bearing L1210 leukemia cells; assay: Splenic lymphopoiesis in mice bearing L1210 leukemia cells; format: in vivo, DBA/2 mice; details: 20 mg/kg, iv × 7
Description: Each of 60 DBA/2 mice was inoculated subcutaneously with 1×10^4 L1210 leukemia cells of mice. Next day, the mice were grouped randomly into 6 groups (10 mice per group): Lentinan 20 mg/kg, the injection of the invention (6.25 ml/kg, 12.5 ml/kg and 25 ml/kg), solvent control and NS control. Animals were administered, i.v., for 7 days, then sacrificed. Spleens were picked up in aseptic condition. Splenocytes were counted and adjusted into 1×10^7/ml. Cells (100 μl/well) and medium (100 μl/well) were added into wells of a 96 well microplate in triplicate. The 96 well microplate was incubated in a 37° C. incubator under 5% CO2 for 48 h. Then, ^3H-TdR (0.5 μci/well) was added and the incubation was continued for 20 h. Cells were collected, and CPM values were determined and compared with control groups. […] Lentinan has also shown immuno-enhancement effect.

[4] = tested on: NK cells; assay: Activity of NK cells in mice in vitro (inhibition of 3H-TdR incorporation, YAC-1 target cells); format: cell-based, C57BL/6 mice; details: for CPM (x ± SD), activity of NK cells in mice in vitro: splenocytes:YAC-1 100:1, 24 h
Description: Method: The activity of NK cells were detected by the inhibition on ^3H-TdR incorporation.
Spleens were picked up from C57BL/6 mice in aseptic condition. Splenocytes, as effector cells, were adjusted to 1×10^6 cells/ml. YAC-1 cells, target cells, which have been cultured for 24 h, were adjusted to 1×10^4 cells/ml. The cells were added into wells of a 96 well microplate (100 μl/well). The experiment groups were as follows: the injection of the invention in four concentrations, lentinan (positive control group) in four concentrations, corresponding solvent (blank control I) and medium (blank control II). To each well of a 96 well microplate were added Splenocytes: YAC-1 cells=100: 1 (100 μl), test sample (100 μl) and ^3H-TdR 0.5 μci/well. After being incubated in a 37° C. incubator under 5% CO2 for 24 h, cells were collected, and CPM values were determined. The specific percentage inhibition (Pi), indicating the activity of NK cells, was calculated according to the formula: Pi=(1−CPMExp./CPMcont.)×100%

[5] = tested on: IL-2; assay: Production of IL-2 in mice suffering from L1210 leukemia (CTLL cell 3H-TdR incorporation); format: in vivo, DBA/2 mice; details: 20 mg/kg, iv × 7
Description: Each of 60 DBA/2 mice was inoculated subcutaneously with 1×10^4 L1210 leukemia cells of mice. Next day, the mice were grouped randomly into 6 groups (10 mice per group): Lentinan 20 mg/kg, the injection of the invention (6.25 ml/kg, 12.5 ml/kg and 25 ml/kg), solvent control and NS control. Animals were administered, i.v., for 7 days, then sacrificed. Spleens were picked up in aseptic condition. Splenocytes were prepared and adjusted into 1×10^7/ml. To each well of a 24 well plate were added splenocytes cells (2 ml) and Con A (5 μg/ml). After the plate was incubated in a 37° C. incubator under 5% CO2 for 24 h, the supernate was collected. The activity of IL-2 was determined in IL-2 dependent CTLL cell strain by using the method of ^3H-TdR incorporation.

For Lentinan, the “CPM (x ± SD), activity of NK cells in mice bearing cancer” value [1] was 5660 ± 260 CPM, the “Pi (%), activity of NK cells in mice bearing cancer” value [1] was 54.5% and the “CPM (x ± SD), splenic lymphopoiesis in mice in vitro” value ([2]; 100 μl (1:1)) was 7700 ± 747 CPM. The “CPM (x ± SD), splenic lymphopoiesis in mice in vitro” value ([2]; 100 μl (1:2)) was 11025 ± 1133 CPM, the “CPM (x ± SD), splenic lymphopoiesis in mice in vitro” value ([2]; 100 μl (1:4)) was 11555 ± 1279 CPM and the “CPM (x ± SD), splenic lymphopoiesis in mice in vitro” value ([2]; 100 μl (stock solution)) was 7420 ± 957 CPM. The “CPM (x ± SD), splenic lymphopoiesis in mice bearing L1210 leukemia cells” value [3] was 7410 ± 770 CPM, the “Pi % (specific percentage inhibition, activity of NK cells) in vitro” value ([4]; 100 μl (1:1)) was 33.5% and the “CPM (x ± SD), activity of NK cells in mice in vitro” value (shortened to “CPM (x ± SD), activity … in vitro”) ([4]; 100 μl (1:1)) was 8130 ± 930 CPM. For the same substance, the “Pi % (specific percentage inhibition, activity of NK cells) in vitro” value ([4]; 100 μl (1:2)) was 35.5%, the “CPM (x ± SD), activity … in vitro” value ([4]; 100 μl (1:2)) was 7892 ± 995 CPM and the “Pi % (specific percentage inhibition, activity of NK cells) in vitro” value ([4]; 100 μl (1:4)) was 54.5%. The “CPM (x ± SD), activity … in vitro” value ([4]; 100 μl (1:4)) was 5544 ± 85 CPM, the “Pi % (specific percentage inhibition, activity of NK cells) in vitro” value ([4]; 100 μl (stock solution)) was 29.5% and the “CPM (x ± SD), activity … in vitro” value ([4]; 100 μl (stock solution)) was 8625 ± 1135 CPM. The “CPM (x ± SD), production of IL-2 in mice suffering from L1210 leukemia” value [5] was 2750 ± 123 CPM.

Source: US9585858B2, “Pharmaceutical composition containing 13 triglycerides, and preparations and use thereof” (ZHEJIANG KANGLAITE GROUP CO., LTD., priority 2014, dated 2017)
